Assay results from ChEMBL document CHEMBL1667729, “Malyngamide 2, an oxidized lipopeptide with nitric oxide inhibiting activity from a Papua New Guinea marine cyanobacterium” (J Nat Prod, 2011).
Activity calls are given as the source filed them. The calls are words filed in the database; no cut-off is given here. Numbered stars: 1 amine (or outer) side, 2 acyl side, 3 side chain; on linkers, the order of the positions; unused ones are H or OH. Square brackets hold non-standard residues; d marks the D form. Peptide text beside a SMILES is read from it. PheOxz = O=C(c1coc([C@H](Cc2ccccc2)N[*:1])n1)[*:2]; X2 = CC[C@H](C)[C@H](N[*:1])c1nc(C(=O)[*:2])co1; X1 = Cc1oc([C@@H](N[*:1])C(C)C)nc1C(=O)[*:2]

Tests used:
RAW264.7 [1] = assay: Anti-inflammatory activity against mouse RAW264.7 cells assessed as inhibition of LPS-induced NO production after 24 hrs; assay type: functional, cell-based; conditions: RAW264.7, 24 h
RAW264.7 [2] = assay: Cytotoxicity against mouse RAW264.7 cells at 21 uM; assay type: functional; conditions: read-out: Survival
NCI-H460 = assay: Cytotoxicity against human H460 cells; assay type: functional, cell-based
Neuro2a = assay: Inhibition of voltage-gated sodium channel in mouse Neuro2a cells at 17.5 uM

CCCCCCC[C@@H](C/C=C/CCC(=O)NC/C(=C/Cl)[C@@H]1C(=O)[C@H](O)C[C@@H](O)[C@]1(C)O)OC [MALYNGAMIDE]
IC50 (RAW264.7 [1]): 8 µM
viability at 21 µM (RAW264.7 [2]): 94%
IC50 (NCI-H460): 27.3 µM

CC[C@H](C)[C@@H]1NC(=O)[C@@H]2CCCN2C(=O)[C@H](Cc2ccccc2)NC(=O)c2coc(n2)[C@H](Cc2ccccc2)NC(=O)c2nc(oc2C)[C@H](C(C)C)NC(=O)CNC(=O)[C@@H]2CCCN2C(=O)[C@@H]2CCCN2C(=O)[C@H](C)NC(=O)c2coc1n2 [WEWAKAZOLE] (cyclo(APPG[X1][PheOxz]FP[X2]))
IC50 (NCI-H460): 10.1 µM
inhibition (Neuro2a): inactive
